Results taken from article PMC9571433, “Design, Synthesis, Anti-Varicella-Zoster and Antimicrobial Activity of (Isoxazolidin-3-yl)Phosphonate Conjugates of N1-Functionalised Quinazoline-2,4-Diones” (Molecules, 2022).
Values after ≈ are worked out from the molar mass of the structure shown. Like-named read-outs stand apart in the source and are kept apart here.

Legend:
[1] = test system: TK– VZV 07-1 strain; experiment: microbe, parasite or virus in culture; assay type: cell-based, varicella-zoster virus; conditions: Human alphaherpesvirus 3, HEL, read-out: Antiviral Activity EC50 TK– VZV Strain (07-1)
[2] = test system: human embryonic lung (HEL) cells; conditions: minimum cytotoxic concentration causing microscopically detectable alteration of cell morphology
[3] = test system: TK+ VZV OKA strain; experiment: microbe, parasite or virus in culture; assay type: cell-based, varicella-zoster virus; conditions: Human alphaherpesvirus 3, HEL, read-out: Antiviral Activity EC50 TK+ VZV Strain (OKA)
[4] = test system: E. faecalis ATCC 29212; experiment: Broth microdilution MIC/MBC; conditions: Enterococcus faecalis, ATCC29212, 24 h
[5] = test system: S. aureus ATCC 2593; experiment: Broth microdilution MIC/MBC; conditions: Staphylococcus aureus, ATCC2593, 24 h, read-out: MIC = MBC
[6] = test system: B. cereus PCM 1948; experiment: Broth microdilution MIC/MBC; conditions: Bacillus cereus, PCM1948, 24 h, read-out: MIC = MBC
[7] = test system: A. brasiliensis ATCC 16404; experiment: Broth microdilution MIC/MBC (antifungal); conditions: Aspergillus brasiliensis
[8] = test system: P. aeruginosa ATCC 27853; experiment: Broth microdilution MIC/MBC; conditions: Pseudomonas aeruginosa, ATCC27853, 24 h, read-out: MIC = MBC
[9] = test system: E. coli ATCC 25922; experiment: Broth microdilution MIC/MBC; conditions: Escherichia coli
[10] = test system: C. albicans ATCC 10241; experiment: Broth microdilution MIC/MBC (antifungal); conditions: Candida albicans
[11] = test system: feline herpes viruses; set-up: method as in PMID 24906510, PMID 28763115, PMID 24219992; conditions: read-out: EC50 toward feline herpes viruses; cited from earlier work
[12] = ATCC16404, 72 h, read-out: MIC = MBC
[13] = ATCC25922, 24 h, read-out: MIC = MBC

MIC ([7]; ATCC16404) | MIC ([10]; ATCC10241) | SMILES | EC50 [1] | Cytotoxicity Cell Morphology MCC [2] | EC50 [3] | MBC [4] | MIC [4] | MIC [5] | MIC [6] | MIC [7, 12] | MIC [8] | MIC [9, 13] | MIC ([10]; ATCC10241, read-out: MIC = MBC) | MIC ([9]; ATCC25922) | MBC ([7]; ATCC16404) | MBC ([10]; ATCC10241) | EC50 [11]
– | – | O=c1[nH]c(=O)n([C@H]2C[C@H](O)[C@@H](CO)O2)cc1/C=C/Br [Brivudin, reference compound] | 12 µM | >300 μM | 0.026 µM | – | – | – | – | – | – | – | – | – | – | – | –
– | – | CCOP(=O)(OCC)C1CC(Cn2c(=O)c3ccccc3n(Cc3ccccc3F)c2=O)ON1Cc1ccccc1 (stereo not drawn) [Diethyl trans-(2-benzyl-5-((1-(2-fluorobenzyl)-2,4-dioxo-1,2-dihydroquinazolin-3(2H)-yl)methyl)isoxazolidin-3-yl)phosphonate] | 27.6 µM | 100 μM | 12.6 µM | > 5000 µg/mL | > 5000 µg/mL | 5000 µg/mL (≈ 8.6 mM) | 1250 µg/mL (≈ 2.15 mM) | 5000 µg/mL (≈ 8.6 mM) | 2500 µg/mL (≈ 4.3 mM) | 2500 µg/mL (≈ 4.3 mM) | 2500 µg/mL (≈ 4.3 mM) | – | – | – | –
– | – | CCOP(=O)(OCC)C1CC(Cn2c(=O)c3ccccc3n(Cc3cccc(F)c3)c2=O)ON1Cc1ccccc1 (stereo not drawn) [Diethyl trans-(2-benzyl-5-((1-(3-fluorobenzyl)-2,4-dioxo-1,2-dihydroquinazolin-3(2H)-yl)methyl)isoxazolidin-3-yl)phosphonate] | 14.5 µM | 20 μM | 20 µM | > 5000 µg/mL | > 5000 µg/mL | 5000 µg/mL (≈ 8.6 mM) | 2500 µg/mL (≈ 4.3 mM) | 5000 µg/mL (≈ 8.6 mM) | 2500 µg/mL (≈ 4.3 mM) | 1250 µg/mL (≈ 2.15 mM) | 2500 µg/mL (≈ 4.3 mM) | 1250 µg/mL (≈ 2.15 mM) | – | – | –
– | – | CCOP(=O)(OCC)C1CC(Cn2c(=O)c3ccccc3n(Cc3ccc(F)cc3)c2=O)ON1Cc1ccccc1 (stereo not drawn) [Diethyl trans-(2-benzyl-5-((1-(4-fluorobenzyl)-2,4-dioxo-1,2-dihydroquinazolin-3(2H)-yl)methyl)isoxazolidin-3-yl)phosphonate] | 20 µM | 100 μM | 20 µM | > 5000 µg/mL | > 5000 µg/mL | 5000 µg/mL (≈ 8.6 mM) | 1250 µg/mL (≈ 2.15 mM) | 5000 µg/mL (≈ 8.6 mM) | 2500 µg/mL (≈ 4.3 mM) | 1250 µg/mL (≈ 2.15 mM) | 2500 µg/mL (≈ 4.3 mM) | 1250 µg/mL (≈ 2.15 mM) | – | – | –
5 µg/mL (≈ 0.0163 mM) | 5 µg/mL (≈ 0.0163 mM) | OC(Cn1cncn1)(Cn1cncn1)c1ccc(F)cc1F [Fluconazole, reference compound] | – | – | – | – | – | – | – | – | – | – | – | – | > 5 µg/mL | > 5 µg/mL | –
– | – | CCOP(=O)(OCC)C1CC(Cn2c(=O)c3ccccc3n(Cc3ccccc3)c2=O)ON1C (stereo not drawn) [cis-20a/trans-20a (10:90), Diethyl trans-5-((1-benzyl-2,4-dioxo-1,4-dihydroquinazolin-3(2H)-yl)methyl)-2-methylisoxazolidin-3-yl)phosphonate] | 100 µM | >100 μM | 31.7 µM | > 5000 µg/mL | > 5000 µg/mL | 2500 µg/mL (≈ 5.13 mM) | 1250 µg/mL (≈ 2.56 mM) | 5000 µg/mL (≈ 10.3 mM) | 2500 µg/mL (≈ 5.13 mM) | 1250 µg/mL (≈ 2.56 mM) | 2500 µg/mL (≈ 5.13 mM) | 1250 µg/mL (≈ 2.56 mM) | – | – | –
– | – | CCOP(=O)(CCCn1cc(Cn2c(=O)n(C(=O)c3ccccc3)c(=O)c3ccccc32)nn1)OCC [compound 7] | – | – | – | – | – | – | – | – | – | – | – | – | – | – | 4 µM
– | – | O=C(c1ccccc1)n1c(=O)c2ccccc2n(Cc2cn(C[C@H](OCc3ccccc3)[C@H](O)P(=O)(OCc3ccccc3)OCc3ccccc3)nn2)c1=O [compound 8] | – | – | – | – | – | – | – | – | – | – | – | – | – | – | 24 µM
